One molecule from ChEMBL document CHEMBL1157481, “Microwave-assisted synthesis of 5-aminopyrazol-4-yl ketones and the p38(MAPK) inhibitor RO3201195 for study in Werner syndrome cells” (Bioorg Med Chem Lett, 2008) can be followed below.

The target in the experiment is Mitogen-activated protein kinase 9 (Homo sapiens) (UniProt P45984). The experiment in a line: Inhibition of JNK2 in hTERT-immortalized human HCA2 cells assessed as c-jun phosphorylation upto 50 uM by ELISA in presence of anisomycin. It is filed as cell-based. On the technique in general: ELISA stands for enzyme-linked immunosorbent assay.
Mitogen-activated protein kinase 9 (Homo sapiens), sequence (P45984 whole entry, looked up): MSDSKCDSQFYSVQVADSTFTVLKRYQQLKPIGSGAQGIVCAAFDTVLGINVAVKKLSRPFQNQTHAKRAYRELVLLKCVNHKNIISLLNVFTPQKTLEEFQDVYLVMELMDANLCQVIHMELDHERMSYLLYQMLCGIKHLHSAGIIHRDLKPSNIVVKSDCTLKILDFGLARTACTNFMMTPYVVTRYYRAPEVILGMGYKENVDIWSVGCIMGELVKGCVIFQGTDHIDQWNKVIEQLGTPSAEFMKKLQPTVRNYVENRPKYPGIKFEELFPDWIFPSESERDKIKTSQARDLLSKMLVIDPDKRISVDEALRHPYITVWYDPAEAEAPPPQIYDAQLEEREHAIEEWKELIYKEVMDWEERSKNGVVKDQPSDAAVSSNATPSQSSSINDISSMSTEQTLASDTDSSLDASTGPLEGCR

Each structure is given as a SMILES string. Calls of active or inactive are those of the source. No cut-off for these calls is given here.

With `Nc1c(C(=O)c2cccc(OC[C@@H](O)CO)c2)cnn1-c1ccc(F)cc1`, the result was inactive.
